Measurements from PMC10745768, “Stereoselective Synthesis and Antiproliferative Activity of Steviol-Based Diterpene 1,3-Aminoalcohol Regioisomers” (Molecules, 2023).
One block for each molecule: values may come before it.

Experiments:
[1] = system: MCF-7 cells; experiment: MTT antiproliferative assay, MCF-7; format: cell-based; settings: Homo sapiens, MCF7; for inhibition at 10 µM: MCF-7, 10 μM; for inhibition at 10 µM / inhibition at 30 µM: 72 h, read-out: Growth inhibition (%) ± SEM; for inhibition at 30 µM: MCF-7, 30 μM
Protocol: (§1) The in vitro anticancer effects of the presented compounds were assessed using the standard MTT [3-(4,5-dimethylthiazol2-yl)-2,5-diphenyltetrazolium bromide] assay on the following human cancer cell lines: cervical (HeLa and SiHa), breast (MCF-7 and MDA-MB-231) and ovarian cancer (A2780). The selectivity of the tested compounds was determined on murine embryonal fibroblast cells (NIH/3T3). The utilised cell lines were purchased from the European Collection of Cell Cultures (Salisbury, UK). The cells were cultivated in Eagle’s minimal essential medium supplemented with 10% fetal bovine serum, 1% non-essential amino acids and 1% antibiotic-antimycotic complex (penicillin, streptomycin, amphotericin B) at 37 °C in a humidified atmosphere containing 5% CO2. All media and supplements were purchased from Lonza Group Ltd. (Basel, Switzerland). The cancer cells were seeded into 96-well plates (5000 cells/well) and incubated overnight, and the test compounds were applied in two different concentrations (10 µM and 30 µM) and incubated for another 72 h under cell-culturing conditions. […] After 72 h, 20 µL of the 5 mg/mL MTT solution was added to each well, and the plates were incubated for 4 h. The medium was removed, and the formazan crystals produced by the mitochondrial activity were dissolved in dimethyl sulfoxide (DMSO) via shaking at 37 °C for 30 min. The absorbances were measured at 545 nm using a microplate reader (SPECTROStar Nano, BMG Labtech, Offenburg, Germany). The reference agent was cisplatin, which is a widely used cytotoxic agent. The IC50 values were calculated using sigmoid curve fitting. Two independent experiments were performed with five parallel wells for each condition. Calculations were performed using the GraphPad Prism 9 software (GraphPad Software Inc., San Diego, CA, USA).

[2] = system: A2780 cells; experiment: MTT antiproliferative assay, A2780; format: cell-based; settings: Homo sapiens; for inhibition at 10 µM: A2780, 10 μM; for inhibition at 10 µM / inhibition at 30 µM: 72 h, read-out: Growth inhibition (%) ± SEM; for inhibition at 30 µM: A2780, 30 μM
Protocol: as §1

[3] = system: MDA-MB-231 cells; experiment: MTT antiproliferative assay, MDA-MB-231; format: cell-based; settings: Homo sapiens; for inhibition at 10 µM: MDA-MB-231, 10 μM; for inhibition at 10 µM / inhibition at 30 µM: 72 h, read-out: Growth inhibition (%) ± SEM; for inhibition at 30 µM: MDA-MB-231, 30 μM
Protocol: as §1

[4] = system: SiHa cells; experiment: MTT antiproliferative assay, SiHa; format: cell-based; settings: Homo sapiens, 72 h; for inhibition at 10 µM / inhibition at 30 µM: read-out: Growth inhibition (%) ± SEM
Protocol: as §1

[5] = system: NIH/3T3 fibroblast cells; experiment: MTT assay on non-malignant fibroblasts (selectivity); format: cell-based, murine; settings: Mus musculus, NIH3T3; for inhibition at 10 µM: NIH/3T3, 10 μM; for inhibition at 10 µM / inhibition at 30 µM: 72 h, read-out: Growth inhibition (%) ± SEM; for inhibition at 30 µM: NIH/3T3, 30 μM
Protocol: as §1

[6] = system: HeLa cells; experiment: MTT antiproliferative assay, HeLa; format: cell-based; settings: Homo sapiens, 72 h; for inhibition at 10 µM / inhibition at 30 µM: read-out: Growth inhibition (%) ± SEM
Protocol: as §1

melting point: 151 to 157 °C
Structure (SMILES): COC(=O)[C@]1(C)CCC[C@@]2(C)[C@@H]3CC[C@@]4(CO)C[C@]3(CC[C@@H]21)C[C@H]4N[C@@H](C)c1cccc2ccccc12 [Compound 14, (4R,4aS,6aR,8R,9R,11aR,11bS)-Methyl 9-(hydroxymethyl)-4,11b-dimethyl-8-(((S)-1-(naphthalen-1-yl)ethyl)amino)tetradecahydro-6a,9-methanocyclohepta[a]naphthalene-4-carboxylate]
inhibition at 10 µM [1]: 78.9 ± 4.11% | inhibition at 30 µM [1]: 97.44 ± 0.53% | inhibition at 10 µM [2]: 93.3 ± 1.99% | inhibition at 30 µM [2]: 99.57 ± 0.35% | inhibition at 10 µM [3]: 53.2 ± 2.44% | inhibition at 30 µM [3]: 95 ± 1.24% | inhibition at 10 µM [4]: 34.1 ± 2.53% | inhibition at 30 µM [4]: 88.88 ± 0.87% | inhibition at 10 µM [5]: 50.4 ± 2.91% | inhibition at 30 µM [5]: 97.15 ± 0.6% | inhibition at 10 µM [6]: 24.6 ± 2.79% | inhibition at 30 µM [6]: 95.1 ± 1.6%

melting point: 98 to 104 °C
Structure (SMILES): COC(=O)[C@]1(C)CCC[C@@]2(C)[C@@H]3CC[C@@]4(CNCc5ccccc5)C[C@]3(CC[C@@H]21)C[C@H]4O [Compound 22, (4R,4aS,6aR,8R,9S,11aR,11bS)-Methyl 9-((benzylamino)methyl)-8-hydroxy-4,11b-dimethyltetradecahydro-6a,9-methanocyclohepta[a]naphthalene-4-carboxylate]
inhibition at 10 µM [1]: 90.6 ± 0.98% | inhibition at 30 µM [1]: 94.23 ± 0.82% | inhibition at 10 µM [2]: 69.5 ± 3.98% | inhibition at 30 µM [2]: 96.04 ± 0.45% | inhibition at 10 µM [3]: 90.95 ± 0.4% | inhibition at 30 µM [3]: 89.66 ± 0.28% | inhibition at 10 µM [4]: 69 ± 2.02% | inhibition at 30 µM [4]: 80.8 ± 2.91% | inhibition at 10 µM [5]: 49 ± 1.37% | inhibition at 30 µM [5]: 94.25 ± 0.45% | inhibition at 10 µM [6]: 59.2 ± 6.61% | inhibition at 30 µM [6]: 90.87 ± 0.35%

IC50 ([1]; MCF-7, 72 h, read-out: calculated IC50): 2.47 µM | IC50 ([2]; A2780, 72 h, read-out: calculated IC50): 4.06 µM | IC50 ([3]; MDA-MB-231, 72 h, read-out: calculated IC50): 5.62 µM | IC50 ([6]; read-out: calculated IC50): 3.51 µM | melting point: 150 to 153 °C
Structure (SMILES): COC(=O)[C@]1(C)CCC[C@@]2(C)[C@@H]3CC[C@@]4(CO)C[C@]3(CC[C@@H]21)C[C@H]4N[C@H](C)c1ccc2ccccc2c1 [Compound 17, (4R,4aS,6aR,8R,9R,11aR,11bS)-Methyl 9-(hydroxymethyl)-4,11b-dimethyl-8-(((R)-1-(naphthalen-2-yl)ethyl)amino)tetradecahydro-6a,9-methanocyclohepta[a]naphthalene-4-carboxylate]
inhibition at 10 µM [1]: 86.3 ± 2.86% | inhibition at 30 µM [1]: 97.42 ± 0.71% | inhibition at 10 µM [2]: 100.6 ± 0.76% | inhibition at 30 µM [2]: 100 ± 0.91% | inhibition at 10 µM [3]: 91.5 ± 1.24% | inhibition at 30 µM [3]: 95.03 ± 0.91% | inhibition at 10 µM [4]: 83.3 ± 1.58% | inhibition at 30 µM [4]: 86.7 ± 1.74% | IC50 ([4]; read-out: calculated IC50): 5.37 µM | inhibition at 10 µM [5]: 20.5 ± 1.7% | inhibition at 30 µM [5]: 96.54 ± 0.62% | IC50 ([5]; NIH/3T3, 72 h, read-out: calculated IC50): 8.7 µM | inhibition at 10 µM [6]: 90.5 ± 1.34% | inhibition at 30 µM [6]: 93.5 ± 2.5%

melting point: 180 to 185 °C
Structure (SMILES): COC(=O)[C@]1(C)CCC[C@@]2(C)[C@@H]3CC[C@@]4(CO)C[C@]3(CC[C@@H]21)C[C@H]4N[C@H](C)c1cccc2ccccc12 [Compound 13, (4R,4aS,6aR,8R,9R,11aR,11bS)-Methyl 9-(hydroxymethyl)-4,11b-dimethyl-8-(((R)-1-(naphthalen-1-yl)ethyl)amino)tetradecahydro-6a,9-methanocyclohepta[a]naphthalene-4-carboxylate]
inhibition at 10 µM [1]: 56.7 ± 3.88% | inhibition at 30 µM [1]: 96.84 ± 0.55% | inhibition at 10 µM [2]: 83.7 ± 1.95% | inhibition at 30 µM [2]: 99.02 ± 0.39% | inhibition at 10 µM [3]: < 20% | inhibition at 30 µM [3]: 94.3 ± 1.83% | inhibition at 10 µM [4]: 24.2 ± 3.46% | inhibition at 30 µM [4]: 87.9 ± 1.62% | inhibition at 10 µM [5]: < 20% | inhibition at 30 µM [5]: 96.88 ± 0.74% | inhibition at 10 µM [6]: < 20% | inhibition at 30 µM [6]: 92.3 ± 2.7%
